We go through nine compounds from patent publication US10004701B2, “Methods and compositions for treating infection” (UNIVERSITY OF ROCHESTER, priority 2012, dated 2018).

Holding throughout (assay): AK assay 384-well format, Prestwick library screening
The subject of experiment [1] is S. aureus strain USA300-0114. It counts as cell-based, Staphylococcus aureus. Particulars: 50 μM final drug concentration; for fold induction at 50 µM: Staphylococcus aureus, USA300, 3 h.
In a further experiment the test system is K. pneumoniae. The class given is cell-based, Klebsiella pneumoniae. Particulars: 50 μM final drug concentration; for fold induction at 50 µM: Klebsiella pneumoniae, 3 h.
The next experiment deals with P. aeruginosa. It counts as cell-based, Pseudomonas aeruginosa. Particulars: 50 μM final drug concentration; for fold induction at 50 µM: Pseudomonas aeruginosa, 3 h.
Experiment [2] concerns A. baumannii strain 98-37-09. The class given is cell-based, Acinetobacter baumannii. As to conditions: 50 μM final drug concentration; for fold induction at 50 µM: Acinetobacter baumannii, 983709, 3 h.
Another experiment has as its system E. cloacae. It counts as cell-based, Enterobacter cloacae. As to conditions: 50 μM final drug concentration; for fold induction at 50 µM: Enterobacter cloacae, 3 h.
The subject of another experiment is E. coli. It counts as cell-based, Escherichia coli. As to conditions: 50 μM final drug concentration; for fold induction at 50 µM: Escherichia coli, 3 h.
The next experiment deals with E. faecium. It counts as cell-based, Enterococcus faecium. Particulars: 50 μM final drug concentration; for fold induction at 50 µM: Enterococcus faecium, 3 h.
Setting [3] is: 384-well format, cutoff for positive-scoring molecules 3-fold increase, read-out: AK-based Prestwick Library Screening Results, S. aureus (increase in extracellular AK activity).
Where [4] appears, read: 384-well format, cutoff for positive-scoring molecules 3-fold increase, read-out: AK-based Prestwick Library Screening Results, K. pneumoniae (increase in extracellular AK activity).
[5] abbreviates: 384-well format, cutoff for positive-scoring molecules 3-fold increase, read-out: AK-based Prestwick Library Screening Results, P. aeruginosa (increase in extracellular AK activity).
[6] abbreviates: 384-well format, cutoff for positive-scoring molecules 3-fold increase, read-out: AK-based Prestwick Library Screening Results, A. baumannii (increase in extracellular AK activity).
The mark [7] stands for this setting: 384-well format, cutoff for positive-scoring molecules 3-fold increase, read-out: AK-based Prestwick Library Screening Results, E. cloacae (increase in extracellular AK activity).
The mark [8] stands for this setting: 384-well format, cutoff for positive-scoring molecules 3-fold increase, read-out: AK-based Prestwick Library Screening Results, E. coli (increase in extracellular AK activity).
The mark [9] stands for this setting: 384-well format, cutoff for positive-scoring molecules 3-fold increase, read-out: AK-based Prestwick Library Screening Results, E. faecium (increase in extracellular AK activity).
The mark [10] stands for this setting: 384-well format, cutoff for positive-scoring molecules 3-fold increase.

Molecules are shown by their SMILES. Where a name gives a salt, the structure may show the parent alone. Read-outs that look alike come from different tables or passages of the source.

`C[C@]12N[C@H](Cc3ccccc31)c1ccccc12` [Dizocilpine maleate]: the fold induction at 50 µM in experiment [1] (384-well format, […], read-out: AK-based Prestwick Library Screening Results, S. aureus (increase in extracellular AK activity)) was 0.7; in the experiment on K. pneumoniae (384-well format, […], read-out: AK-based Prestwick Library Screening Results, K. pneumoniae (increase in extracellular AK activity)), 0.7; in the experiment with P. aeruginosa (384-well format, […], read-out: AK-based Prestwick Library Screening Results, P. aeruginosa (increase in extracellular AK activity)) it was 0.9; in experiment [2] (384-well format, […], read-out: AK-based Prestwick Library Screening Results, A. baumannii (increase in extracellular AK activity)) it was 0.8; with E. cloacae (384-well format, […], read-out: AK-based Prestwick Library Screening Results, E. cloacae (increase in extracellular AK activity)), 1; in the experiment on E. coli (384-well format, […], read-out: AK-based Prestwick Library Screening Results, E. coli (increase in extracellular AK activity)), 0.9. In addition, the fold induction at 50 µM in the experiment on E. faecium (384-well format, […], read-out: AK-based Prestwick Library Screening Results, E. faecium (increase in extracellular AK activity)) is 0.9.
With `CCCOc1ccccc1-c1nc2nn[nH]c2c(=O)[nH]1` [Zaprinast], the fold induction at 50 µM was determined as 0.6 in experiment [1] (planktonic S. aureus, cutoff for positive-scoring molecules 3-fold increase, read-out: AK-based Prestwick Library Screening Results, S. aureus (increase in extracellular AK activity)); 0.5 in the experiment with K. pneumoniae (planktonic K. pneumoniae, cutoff for positive-scoring molecules 3-fold increase, read-out: AK-based Prestwick Library Screening Results, K. pneumoniae (increase in extracellular AK activity)); 0.7 in the experiment on P. aeruginosa (planktonic P. aeruginosa, cutoff for positive-scoring molecules 3-fold increase, read-out: AK-based Prestwick Library Screening Results, P. aeruginosa (increase in extracellular AK activity)); 0.6 in experiment [2] (planktonic A. baumannii, cutoff for positive-scoring molecules 3-fold increase, read-out: AK-based Prestwick Library Screening Results, A. baumannii (increase in extracellular AK activity)); 0.8 in the experiment with E. cloacae (planktonic E. cloacae, cutoff for positive-scoring molecules 3-fold increase, read-out: AK-based Prestwick Library Screening Results, E. cloacae (increase in extracellular AK activity)); 0.7 with E. coli (planktonic E. coli, cutoff for positive-scoring molecules 3-fold increase, read-out: AK-based Prestwick Library Screening Results, E. coli (increase in extracellular AK activity)). For the same compound, in the experiment on E. faecium (planktonic E. faecium, cutoff for positive-scoring molecules 3-fold increase, read-out: AK-based Prestwick Library Screening Results, E. faecium (increase in extracellular AK activity)), the fold induction at 50 µM was 1.
`CC[C@@H](CO)NCCN[C@@H](CC)CO` [Ethambutol dihydrochloride]: the fold induction at 50 µM stood at 0.6 in experiment [1] (setting [3]); 0.7 in the experiment on K. pneumoniae (setting [4]); 0.7 in the experiment with P. aeruginosa (setting [5]); 0.8 in experiment [2] (setting [6]); 1.1 in the experiment with E. cloacae (setting [7]); 0.9 in the experiment with E. coli (setting [8]). Besides, the fold induction at 50 µM with E. faecium (setting [9]) was determined as 0.9.
Consider `C=C[C@H]1C[N@@]2CC[C@H]1C[C@@H]2[C@@H](O)c1ccnc2ccccc12` [Cinchonine], for which the fold induction at 50 µM in experiment [1] (planktonic, cutoff for positive 3-fold increase, read-out: AK-based Prestwick Library Screening Results, S. aureus (fold increase in extracellular AK activity)) is 1.6; in the experiment with K. pneumoniae (planktonic, cutoff for positive 3-fold increase, read-out: AK-based Prestwick Library Screening Results, K. pneumoniae (fold increase in extracellular AK activity)) it was 1; in the experiment with P. aeruginosa (planktonic, cutoff for positive 3-fold increase, read-out: AK-based Prestwick Library Screening Results, P. aeruginosa (fold increase in extracellular AK activity)), 1.1; in experiment [2] (planktonic, cutoff for positive 3-fold increase, read-out: AK-based Prestwick Library Screening Results, A. baumannii (fold increase in extracellular AK activity)), 1.1; in the experiment with E. cloacae (planktonic, cutoff for positive 3-fold increase, read-out: AK-based Prestwick Library Screening Results, E. cloacae (fold increase in extracellular AK activity)), 1.5; with E. coli (planktonic, cutoff for positive 3-fold increase, read-out: AK-based Prestwick Library Screening Results, E. coli (fold increase in extracellular AK activity)) it was 1.2. Moreover, the fold induction at 50 µM with E. faecium (planktonic, cutoff for positive 3-fold increase, read-out: AK-based Prestwick Library Screening Results, E. faecium (fold increase in extracellular AK activity)) is 1.1.
For `CCC1(c2ccc(N)cc2)CCC(=O)NC1=O` (stereo not drawn) [Glutethimide, para-amino], in experiment [1] (384-well format, […]), the “AK-based Prestwick Library Screening Results, S. aureus (increase in extracellular AK activity)” value came to 0.5. In the experiment on K. pneumoniae (384-well format, […]), the “AK-based Prestwick Library Screening Results, K. pneumoniae (increase in extracellular AK activity)” value was 0.6. Moreover, the “AK-based Prestwick Library Screening Results, P. aeruginosa (increase in extracellular AK activity)” value with P. aeruginosa (384-well format, […]) is listed as 0.6. Besides, the “AK-based Prestwick Library Screening Results, A. baumannii (increase in extracellular AK activity)” value in experiment [2] (384-well format, […]) was determined as 0.6. For the same compound, the “AK-based Prestwick Library Screening Results, E. cloacae (increase in extracellular AK activity)” value in the experiment on E. cloacae (384-well format, […]) stood at 0.5. In the experiment on E. coli (384-well format, […]), the “AK-based Prestwick Library Screening Results, E. coli (increase in extracellular AK activity)” value was determined as 0.5. The “AK-based Prestwick Library Screening Results, E. faecium (increase in extracellular AK activity)” value with E. faecium (384-well format, […]) was 0.9.
As for `Cl.N=C(N=C(N)N)N1CCOCC1` [Moroxidine hydrochloride], in experiment [1] (setting [10]), the “AK-based Prestwick Library Screening Results, S. aureus (increase in extracellular AK activity)” value came to 0.4. Further, in the experiment with K. pneumoniae (setting [10]), the “AK-based Prestwick Library Screening Results, K. pneumoniae (increase in extracellular AK activity)” value is listed as 0.4. In the experiment on P. aeruginosa (setting [10]), the “AK-based Prestwick Library Screening Results, P. aeruginosa (increase in extracellular AK activity)” value is listed as 0.3. Besides, the “AK-based Prestwick Library Screening Results, A. baumannii (increase in extracellular AK activity)” value in experiment [2] (setting [10]) worked out at 0.4. The “AK-based Prestwick Library Screening Results, E. cloacae (increase in extracellular AK activity)” value in the experiment with E. cloacae (setting [10]) is reported as 0.3. Also, the “AK-based Prestwick Library Screening Results, E. coli (increase in extracellular AK activity)” value in the experiment on E. coli (setting [10]) amounted to 0.5. The “AK-based Prestwick Library Screening Results, E. faecium (increase in extracellular AK activity)” value with E. faecium (setting [10]) was determined as 0.8.
Consider `CCn1cc(C(=O)O)c(=O)c2cnc(N3CCNCC3)nc21` [Pipemidic acid], for which the fold induction at 50 µM in experiment [1] (planktonic, […], read-out: AK-based Prestwick Library Screening Results, S. aureus (fold increase in extracellular AK activity)) stood at 0.7; in the experiment with K. pneumoniae (planktonic, […], read-out: AK-based Prestwick Library Screening Results, K. pneumoniae (fold increase in extracellular AK activity)), 1.7; in the experiment on P. aeruginosa (planktonic, […], read-out: AK-based Prestwick Library Screening Results, P. aeruginosa (fold increase in extracellular AK activity)) it was 0.9; in experiment [2] (planktonic, […], read-out: AK-based Prestwick Library Screening Results, A. baumannii (fold increase in extracellular AK activity)), 0.9; in the experiment with E. cloacae (planktonic, […], read-out: AK-based Prestwick Library Screening Results, E. cloacae (fold increase in extracellular AK activity)), 1; in the experiment on E. coli (planktonic, […], read-out: AK-based Prestwick Library Screening Results, E. coli (fold increase in extracellular AK activity)), 14.7. The fold induction at 50 µM with E. faecium (planktonic, […], read-out: AK-based Prestwick Library Screening Results, E. faecium (fold increase in extracellular AK activity)) was 1.1.
In the case of `CO[C@H]1C[C@H](O[C@H]2[C@H](C)[C@@H](O[C@@H]3O[C@H](C)C[C@H](N(C)C)[C@H]3OC(C)=O)[C@@H](C)C[C@@]3(CO3)C(=O)[C@H](C)[C@@H](OC(C)=O)[C@@H](C)[C@@H](C)OC(=O)[C@@H]2C)O[C@@H](C)[C@@H]1OC(C)=O` [Troleandomycin], the fold induction at 50 µM in experiment [1] (setting [3]) was 6.5; in the experiment with K. pneumoniae (setting [4]) it was 0.6; with P. aeruginosa (setting [5]), 0.7; in experiment [2] (setting [6]), 0.8; in the experiment on E. cloacae (setting [7]), 1.1; with E. coli (setting [8]), 0.9. Also, the fold induction at 50 µM with E. faecium (setting [9]) is 1.
As for `CN1C2CC(=O)CC1C(O)C2` (stereo not drawn) [Compound 6-Hydroxytropinone], the “AK-based Prestwick Library Screening Results, S. aureus (fold increase in extracellular AK activity)” value in experiment [1] ([…]) was found to be 0.4. Moreover, in the experiment with K. pneumoniae ([…]), the “AK-based Prestwick Library Screening Results, K. pneumoniae (fold increase in extracellular AK activity)” value was determined as 0.5. The “AK-based Prestwick Library Screening Results, P. aeruginosa (fold increase in extracellular AK activity)” value with P. aeruginosa ([…]) amounted to 0.4. In addition, the “AK-based Prestwick Library Screening Results, A. baumannii (fold increase in extracellular AK activity)” value in experiment [2] ([…]) is reported as 0.5. In the experiment with E. cloacae ([…]), the “AK-based Prestwick Library Screening Results, E. cloacae (fold increase in extracellular AK activity)” value is 0.4. Besides, the “AK-based Prestwick Library Screening Results, E. coli (fold increase in extracellular AK activity)” value in the experiment on E. coli ([…]) is 0.5. Also, in the experiment on E. faecium ([…]), the “AK-based Prestwick Library Screening Results, E. faecium (fold increase in extracellular AK activity)” value worked out at 0.9.
